Source: paper PMC10634346 (Cancer Research Communications, 2023)
pIC50: −log10 of the molar value.

How the values were obtained:
[1] = tested on: MYC mRNA in SU-DHL-10 cells; test: In vitro washout, MYC mRNA qPCR, SU-DHL-10; type: cell-based, human; conditions: 4 h treatment then washout, for 16 to 48 hours after treatment
Procedure: Evaluation of the pharmacodynamic extent and duration of CDK9 inhibition were performed in vitro using the human DLBCL cell lines SU-DHL-4 and SU-DHL-10, harboring MYC amplification and MYC overexpression with P57T mutation, respectively. Cells were seeded 18 hours prior to treatment for 4 hours with one of three CDK9 inhibitors, enitociclib (0.25 and1 µmol/L), atuveciclib (1 µmol/L) or KB-0742 (1 µmol/L), cells were washed, and incubation continued until 48 hours posttreatment. Samples were collected before treatment (−4), immediately after treatment (0), and at 1, 2, 4, 8, 12, 16, 24, and 48 hours after washout for RNA sequencing (RNA-seq), qPCR, and Western blotting analyses. Total RNA was extracted from blood of patients and cell lines using RNeasy Plus Mini Kit (QIAGEN, #74136) and cDNA prepared with the Maxima First Strand cDNA Synthesis Kit for RT-PCR (Thermo Fisher Scientific, K1642) according to manufacturer's instructions. The integrity of purified total RNA was evaluated using an Agilent 2100 Bioanalyzer system and RNA 6000 Nano Kit (Agilent, #5067-1511). Differential gene expression analysis was performed (Fios Genomics) from RNA-seq data (Discovery Life Sciences). MYC and MCL1 mRNA levels were measured by qPCR in vitro and in vivo, using a Taqman qPCR system (Thermo Fisher Scientific), TaqMan Fast Universal PCR Master Mix (2X) no AmpErase (#4352042) and TaqMan probes for MYC (Hs00153408_m1) and MCL1 (Hs03043899_m1). RNA-seq data were analyzed using DESeq2 ([35]).

MCL1 mRNA in whole blood = MCL1 mRNA in whole blood of patients (RNA-seq, PK/PD modeling); type: in vivo, human; conditions: for Downregulation of MCL1 mRNA: C1D15
Procedure: Total RNA was extracted from blood of patients and cell lines using RNeasy Plus Mini Kit (QIAGEN, #74136) and cDNA prepared with the Maxima First Strand cDNA Synthesis Kit for RT-PCR (Thermo Fisher Scientific, K1642) according to manufacturer's instructions. The integrity of purified total RNA was evaluated using an Agilent 2100 Bioanalyzer system and RNA 6000 Nano Kit (Agilent, #5067-1511). Differential gene expression analysis was performed (Fios Genomics) from RNA-seq data (Discovery Life Sciences). MYC and MCL1 mRNA levels were measured by qPCR in vitro and in vivo, using a Taqman qPCR system (Thermo Fisher Scientific), TaqMan Fast Universal PCR Master Mix (2X) no AmpErase (#4352042) and TaqMan probes for MYC (Hs00153408_m1) and MCL1 (Hs03043899_m1). RNA-seq data were analyzed using DESeq2 ([35]).
Fifteen patients with refractory or relapsed DH-DLBCL or other MYC+ NHL were treated with enitociclib (30 mg, 21-day cycle, once weekly x3) as a 30-minute intravenous infusion on study days 1, 8, and 15 (NCT02635672). Longitudinal gene expression levels were analyzed by RNA-seq, and enitociclib plasma concentrations were measured using LC/MS-MS. The clinical study protocol was approved by the Institutional Review Board of participating institutions and complied with the Declaration of Helsinki, current Good Clinical Practice guidelines, and local laws and regulations. Written informed consent was provided by all participants prior to the initiation of any study-specific procedure.
All pharmacokinetic parameters were calculated by noncompartmental methods as described previously ([36]) using WinNonlin v5.3 (Certara LP). Pharmacokinetic/pharmacodynamic modeling was performed using SAAM II v2.3.2 (The Epsilon Group). Pooled pharmacokinetic data from all patients [n = 15 for single dose, cycle 1 day 1 (C1D1) and n = 11 for multiple doses, cycle 1 day 15 (C1D15)] were characterized using a one-compartment model with intravenous dosing. Subsequently, the pharmacokinetic/pharmacodynamic relationship of enitociclib plasma concentrations to MCL1 and MYC mRNA change was characterized using an indirect response model ([37]) on pooled biomarker data where enitociclib concentrations inhibit the formation of MCL1 or MYC mRNA as described by the following equation: […]
PD is defined as MCL1 or MYC mRNA expression level as a percentage from baseline, t (h) is the time, kin (1/h) is the formation rate of MCL1 or MYC, IC50 (µg/L) is the enitociclib concentration where there is 50% inhibition of PD, kout (h^−1) is the rate constant describing the loss of PD, and n is the hill coefficient. At homeostasis, kin = kout (PD); therefore, kout was replaced by kin/(PD)initial where (PD)initial is equal to 100%. Estimates of pharmacokinetic and pharmacodynamic parameters from pharmacokinetic/pharmacodynamic modeling of pooled data are presented as the estimate followed by CV in parentheses.
RNA-seq data generated from the analysis of two cell lines treated with the three CDK9 inhibitors was analyzed to investigate the differences in gene expression levels between various posttreatment timepoints and the pretreatment samples. Quality control assessment and exploratory data analysis by principal component analysis (PCA) were done on raw counts and on normalized count data. Normalization of RNA-seq count data was done using trimmed mean of M-values normalization and transformed with voom, resulting in log2 counts per million with associated precision weights. […] Significance values (Padj) were adjusted for multiple testing, by controlling the FDR using the Benjamini–Hochberg procedure. […] RNA-seq data generated from blood samples taken from patients before and after their first dose (C1D1) or after multiple doses, before and after their third dose (C1D15) were analyzed and normalized using the same pipeline as cell lines for comparisons.

pIC50 (MCL1 mRNA in whole blood; Homo sapiens, PK/PD indirect response model, pooled patient blood data, read-out: model estimated unbound IC50 for MCL1 mRNA): 7.16 to 7.21
Structure (SMILES): COc1cc(F)ccc1-c1cc(Nc2cc(CS(C)(=N)=O)ccn2)ncc1F (centres unmarked) [enitociclib]
inhibition of MYC mRNA levels [1]: approximately 75% | maximal downregulation of MCL1 mRNA level in blood of patients postdose (MCL1 mRNA in whole blood; 30 mg dose): 55.5% | maximal extent of MCL1 mRNA downregulation (MCL1 mRNA in whole blood; C1D1, 30 mg, other MYC+ NHL, range 22.5%–48.2%): 44.54% | time of maximal MCL1 mRNA inhibition (MCL1 mRNA in whole blood; C1D1, 30 mg, patient with the transformed follicular lymphoma): 8 hours postdose | maximal extent of MCL1 mRNA downregulation (MCL1 mRNA in whole blood; C1D1, 30 mg, patients with DH-DLBCL, range 31%–52.4%): 49.28% | Downregulation of MCL1 mRNA (MCL1 mRNA in whole blood; DH-DLBCL, range 30%–55.5%): 45.81% | Downregulation of MCL1 mRNA (MCL1 mRNA in whole blood; other MYC+ NHL, range 0%–43.1%): 18.27%
